The source of these data is ChEMBL document CHEMBL4390694, “Benzofuran-isatin hybrids tethered via different length alkyl linkers and their in vitro anti-mycobacterial activities” (Bioorg Med Chem, 2019).

Structures are written as SMILES. Converted amounts (≈) assume the structure as drawn. A value given as a limit tells only on which side of the number the result lay.

For orientation: CC50 means the concentration at which the toxic effect on the cells reaches its halfway point. For orientation: MIC means the lowest concentration found to suppress growth. As usually defined, the Cmax is the peak of the concentration-time curve. As a reminder, the AUC(0-inf) is total exposure, with the tail of the curve extrapolated. What is called Tmax is the time at which the peak concentration occurs.

Series [1] in a line: Cytotoxicity against African green monkey Vero cells assessed as decrease in cell viability after 72 hrs by MTT assay. The conditions noted are these: chlorocebus sabaeus. The format is cell-based. A general note: Tetrazolium dyes change colour on reduction, which living cells bring about.
For series [2], the system named is Mycobacterium tuberculosis. Nature of the series: Antimycobacterial activity against drug-susceptible Mycobacterium tuberculosis H37Rv assessed as complete inhibition of bacterial growth incubated for 7 days by rapid direct susceptibility test. The format is functional. The note with it: 168 h.
Series [3] in a line: Selectivity index, ratio of CC50 for cytotoxicity against African green monkey Vero cells to MIC for antimycobacterial activity against drug-susceptible Mycobacterium tuberculosis H37Rv. The class given is toxicity, cell-based. The note with it: read-out: Selectivity Index.
The nature of series [4]: Cmax in ICR mouse at 25 mg/kg, po administered as single dose and measured up to 24 hrs post dose. The class given is ADME, organism-based. On the set-up: dose 25 mg/kg, route oral. The conditions noted are these: in vivo.
The nature of series [5]: AUC (0 to infinity) in ICR mouse at 25 mg/kg, po administered as single dose and measured up to 24 hrs post dose. The class given is ADME, organism-based. Details: dose 25 mg/kg, time infinity, route oral. The conditions noted are these: in vivo.
Series [6] is described as follows: Tmax in ICR mouse at 25 mg/kg, po administered as single dose and measured up to 24 hrs post dose. The format is ADME, organism-based. The note with it: in vivo.
Series [7] is described as follows: Elimination half life in ICR mouse at 25 mg/kg, po administered as single dose and measured up to 24 hrs post dose. The format is ADME, organism-based. The note with it: in vivo, read-out: beta t1/2 (converted).
Series [8] in a line: Metabolic stability in mouse liver microsomes assessed as half life. The format is ADME, Microsome. For orientation: Microsomes from liver hold many membrane-bound enzymes, among them those of drug oxidation.

Take `CCOC(=O)c1c(-c2ccc(F)cc2)oc2ccc(OCCCCCCN3C(=O)C(=O)c4cc(F)ccc43)cc12`: the CC50 at 72 h in series [1] turned out to be 512 µM. In addition, the MIC in series [2] came to 0.25 µg/mL (≈ 0.457 µM). The selectivity ratio in series [3] worked out at 2048.
As for `CNC(=O)c1c(-c2ccc(O)cc2)oc2ccc(O)c(CN3CCCCC3)c12`, the CC50 at 72 h in series [1] is greater than 1020 µM. Besides, in series [4], the Cmax was 6830 ng/mL. For the same compound, the AUC(0-inf) in series [5] came out at 31800 ng·h/mL. For the same compound, the MIC in series [2] is less than 0.06 µg/mL. Also, the selectivity ratio in series [3] is greater than 16400. The Tmax in series [6] was found to be 3.12 h. Further, the half-life is 515 min in series [7] and greater than 60 min in series [8].
`CCOC(=O)c1c(-c2ccc(OC)cc2)oc2ccc(OCCCCCN3C(=O)C(=O)c4cc(F)ccc43)cc12`: in series [1], the CC50 at 72 h was found to be 128 µM. The minimum inhibitory concentration (MIC) in series [2] worked out at 0.25 µg/mL (≈ 0.458 µM). In series [3], the selectivity ratio was determined as 512.
Take `CCOC(=O)c1c(-c2ccc(F)cc2)oc2ccc(OCCCCCN3C(=O)C(=O)c4cc(OC)ccc43)cc12`: in series [1], the CC50 at 72 h was found to be 128 µM. Further, the MIC in series [2] worked out at 0.5 µg/mL (≈ 0.916 µM). The selectivity ratio in series [3] is 256.
For `CCOC(=O)c1c(-c2ccccc2)oc2ccc(OCCCN3C(=O)C(=O)c4cc(OC)ccc43)cc12`, in that order: 256 µM, 0.25 µg/mL (≈ 0.5 µM) and 1024.
Consider `CCOC(=O)c1c(-c2ccc(OC)cc2)oc2ccc(OCCCN3C(=O)C(=O)c4cc(F)ccc43)cc12`, for which the CC50 at 72 h in series [1] stood at 256 µM. For the same compound, the MIC in series [2] stood at 0.5 µg/mL (≈ 0.966 µM). The selectivity ratio in series [3] was found to be 512.
For `CCOC(=O)c1c(-c2ccc(OC)cc2)oc2ccc(OCCCN3C(=O)C(=O)c4ccccc43)cc12`, in that order: 64 µM, 1 µg/mL (≈ 2 µM) and 64.
For `CCOC(=O)c1c(-c2ccc(F)cc2)oc2ccc(OCCCN3C(=O)C(=O)c4ccccc43)cc12` the same measures were 256 µM, 2 µg/mL (≈ 4.1 µM) and 128.
For `CCOC(=O)c1c(-c2ccc(OC)cc2)oc2ccc(OCCCCN3C(=O)C(=O)c4cc(OC)ccc43)cc12` the same measures were 64 µM, 2 µg/mL (≈ 3.68 µM) and 32.
Consider `CCOC(=O)c1c(-c2ccc(OC)cc2)oc2ccc(OCCCCCCN3C(=O)C(=O)c4ccccc43)cc12`, for which the half-maximal cytotoxic concentration (CC50) at 72 h in series [1] was 256 µM. In addition, the MIC in series [2] amounted to 0.25 µg/mL (≈ 0.462 µM). The selectivity ratio in series [3] came to 1024.
In the case of `CCOC(=O)c1c(-c2ccc(OC)cc2)oc2ccc(OCCCCCCN3C(=O)C(=O)c4cc(F)ccc43)cc12`, the CC50 at 72 h in series [1] came out at 128 µM. The Cmax in series [4] is 1220 ng/mL. This compound showed an AUC(0-inf) in series [5] of 3680 ng·h/mL. For the same compound, the MIC in series [2] amounted to 0.125 µg/mL (≈ 0.223 µM). Also, the selectivity ratio in series [3] amounted to 1024. Also, the Tmax in series [6] worked out at 1.76 h. Further, the half-life in series [7] was 149 min; in series [8] it was 31.6 min.
Turning to `CCOC(=O)c1c(-c2ccc(OC)cc2)oc2ccc(OCCCCN3C(=O)C(=O)c4ccccc43)cc12`, the CC50 at 72 h in series [1] was greater than 1020 µM. In addition, in series [2], the MIC came to 0.5 µg/mL (≈ 0.974 µM). The selectivity ratio in series [3] was greater than 2048.
For `CCOC(=O)c1c(-c2ccc(F)cc2)oc2ccc(OCCCN3C(=O)C(=O)c4cc(F)ccc43)cc12` the same measures were 512 µM, 1 µg/mL (≈ 1.98 µM) and 512.
For `CCOC(=O)c1c(-c2ccc(F)cc2)oc2ccc(OCCCN3C(=O)C(=O)c4cc(OC)ccc43)cc12` the same measures were 128 µM, 1 µg/mL (≈ 1.93 µM) and 128.
As to `NNC(=O)c1ccncc1` [ISONIAZID], the minimum inhibitory concentration (MIC) in series [2] was 0.06 µg/mL (≈ 0.438 µM).
Same read-out and setting: for `CO[C@H]1/C=C/O[C@@]2(C)Oc3c(C)c(O)c4c(O)c(c(/C=N/N5CCN(C)CC5)c(O)c4c3C2=O)NC(=O)/C(C)=C\C=C\[C@H](C)[C@H](O)[C@@H](C)[C@@H](O)[C@@H](C)[C@H](OC(C)=O)[C@@H]1C` [RIFAMPIN] the value was 0.5 µg/mL (≈ 0.608 µM).
